Measurements: publication PMC4564614, “Purification and Characterization of Asparaginase from Phaseolus vulgaris Seeds” (Evidence-based Complementary and Alternative Medicine : eCAM, 2015)

Test system: T1, L-asparaginase I (asparaginase I)
T1 construct: gene ASPG1
Conditions: 50 mM Tris-HCl pH 8.0, 50 mM KCl, 37 °C (standard assay); L-asparagine 2-20 mM

With `NC(=O)C[C@H](N)C(=O)O` [L-asparagine] the Km was 6.72 mM.
